# Measured values: patent publication US20050176733A1, “Chk-1 inhibitors” (Millennium Pharmaceuticals, Inc., priority 2004, published 2005)
# Molecular target: T1, Recombinant human Chk-1 (GST-Chk-1) (Homo sapiens, UniProt O14757)
# T1 construct: made in house; host or cells: insect cells (baculovirus, Bac-to-Bac expression system)
# T1 sequence (O14757 1-476): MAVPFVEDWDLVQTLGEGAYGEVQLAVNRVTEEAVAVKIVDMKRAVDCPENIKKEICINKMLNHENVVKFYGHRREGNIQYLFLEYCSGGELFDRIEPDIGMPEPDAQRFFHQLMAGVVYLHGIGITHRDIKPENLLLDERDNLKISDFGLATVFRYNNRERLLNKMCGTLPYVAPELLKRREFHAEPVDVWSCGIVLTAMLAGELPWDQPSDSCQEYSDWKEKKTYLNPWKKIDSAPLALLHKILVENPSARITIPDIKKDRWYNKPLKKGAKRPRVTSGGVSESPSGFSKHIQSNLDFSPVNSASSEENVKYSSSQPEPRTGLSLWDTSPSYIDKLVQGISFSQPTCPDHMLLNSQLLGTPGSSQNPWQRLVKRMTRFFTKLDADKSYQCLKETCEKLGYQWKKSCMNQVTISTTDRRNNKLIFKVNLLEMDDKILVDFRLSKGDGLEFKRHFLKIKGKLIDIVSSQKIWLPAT
# Experiment: Chk-1 FlashPlate Kinase Assay
# Format: biochemical
# Conditions: for inhibition at 1 µM: at a concentration of 1.0 μM; for inhibition at 10 µM: at a concentration of 10 μM, read-out: inhibition of Chk-1 (Chk-1 induced 33P incorporation)
# Experimental: Recombinant human Chk-1 was expressed as a fusion protein with glutathione S-transferase at the amino-terminus (GST-Chk-1) using standard baculovirus vectors and (Bac-to-Bac®) insect cell expression system purchased from GIBCO™ Invitrogen.
# Recombinant protein expressed in insect cells was purified using glutathione sepharose (Amersham Biotech) using standard procedures described by the manufacturer.
# Assays (25 μL) contained 8.7 nM GST-Chk-1, 10 mM MES, 0.1 mM ethylene glycol-bis(β-aminoethylether)-N,N,N′,N′-tetraacetic acid (EGTA, pH 8.0), 2 mM DTT, 0.05% Tween 20, 3 μM peptide substrate (Biotin-ILSRRPSYRKILND-free acid) (SEQ ID NO: 1), 1 μM ATP, 0.4 μCi ^33P-γ-ATP (NEN), 4% DMSO. Reactions were incubated for 30 minutes at room temperature, terminated with 50 μL of 50 mM EDTA and […] were transferred to streptavidin-coated FlashPlates® (NEN) and incubated for 1 hour at room temperature. Plates were washed with phosphate buffered saline containing 0.01% Tween-20 and 10 mM sodium pyrophosphate. Plates were dried, sealed with Topseal™ (NEN) and amount of ^33P incorporated into the peptide substrate measure using a Packard Topcount® NXT™ scintillation counter with standard settings.
SMILES,inhibition at 1 µM [%],inhibition at 10 µM [%]
"Cc1cnc(NC(=O)Nc2cc(Cl)ccc2OCCCNC(=O)N2CCOCC2)cn1 [Compound I-5, Morpholine-4-carboxylic acid (3-{4-chloro-2-[3-(5-methyl-pyrazin-2-yl)-ureido]-phenoxy}-propyl)-amide]",≥ 50,≥ 50
"Cc1cnc(NC(=O)Nc2cc(Cl)ccc2OCC(=O)N2CCOCC2)cn1 [Compound I-8, 1-[5-Chloro-2-(2-morpholin-4-yl-2-oxo-ethoxy)-phenyl]-3-(5-methyl-pyrazin-2-yl)-urea]",≥ 50,≥ 50
"Cc1cnc(NC(=O)Nc2cc(Cl)ccc2OCCCNC(=O)CN2CCN(C)CC2)cn1 [Compound I-7, N-(3-{4-Chloro-2-[3-(5-methyl-pyrazin-2-yl)-ureido]-phenoxy}-propyl)-2-(4-methyl-piperazin-1-yl)-acetamide]",≥ 50,≥ 50
"Cc1cnc(NC(=O)Nc2ccc(N3CCCC3)cc2OCCCNC(=O)c2ccc(Cl)cc2)cn1 [Compound I-10, 4-Chloro-N-(3-{2-[3-(5-methyl-pyrazin-2-yl)-ureido]-5-pyrrolidin-1-yl-phenoxy}-propyl)-benzamide]",–,≥ 50
"Cc1cnc(NC(=O)Nc2cc(Cl)ccc2OCCCNC(=O)CN2CCOCC2)cn1 [Compound I-6, N-(3-{4-Chloro-2-[3-(5-methyl-pyrazin-2-yl)-ureido]-phenoxy}-propyl)-2-morpholin-4-yl-acetamide]",≥ 50,≥ 50
"Cc1cnc(NC(=O)Nc2cc(Cl)ccc2OCCCNC(=O)CN(C)C)cn1 [Compound I-4, N-(3-{4-Chloro-2-[3-(5-methyl-pyrazin-2-yl)-ureido]-phenoxy}-propyl)-2-dimethylamino-acetamide]",≥ 50,≥ 50
"Cc1cnc(NC(=O)Nc2ccc(N3CCCC3)cc2OCCCNC(=O)CN(C)C)cn1 [Compound I-11, 2-Dimethylamino-N-(3-{2-[3-(5-methyl-pyrazin-2-yl)-ureido]-5-pyrrolidin-1-yl-phenoxy}-propyl)-acetamide]",≥ 50,≥ 50
"N#Cc1ccc(NC(=O)Nc2cc(Cl)ccc2OCCCC(=O)N2CCOCC2)nc1 [Compound I-110, 1-[5-Chloro-2-(4-morpholin-4-yl-4-oxo-butoxy)-phenyl]-3-(5-cyano-pyridin-2-yl)-urea]",–,≥ 50
"Cc1cnc(NC(=O)Nc2cc(C(=O)NCCN(C)C)ccc2OCCCNC(=O)c2ccc(Cl)cc2)cn1 [Compound I-9, 4-[3-(4-Chloro-benzoylamino)-propoxy]-N-(2-dimethylamino-ethyl)-3-[3-(5-methyl-pyrazin-2-yl)-ureido]-benzamide]",≥ 50,≥ 50
"CN1CCN(C(=O)CCCOc2ccc(Cl)cc2NC(=O)Nc2ccc(C#N)cn2)CC1 [Compound I-14, 1-{5-Chloro-2-[4-(4-methyl-piperazin-1-yl)-4-oxo-butoxy]-phenyl}-3-(5-cyano-pyridin-2-yl)-urea]",≥ 50,≥ 50
"NC(=O)c1ccc(NC(=O)Nc2cc(Cl)ccc2OCCCNC(=O)[C@@H](N)Cc2ccc(Cl)cc2)nc1 [Compound I-2, 6-[3-(2-{3-[2-Amino-3-(4-chloro-phenyl)-propionylamino]-propoxy}-5-chloro-phenyl)-ureido]-nicotinamide]",≥ 50,≥ 50

# Further lines, results first:
inhibition at 1 µM [%],inhibition at 10 µM [%],SMILES
≥ 50,≥ 50,"Cc1cnc(NC(=O)Nc2cc(Cl)ccc2OCCCNC(=O)c2ccc(N(C)C)cc2)cn1 [Compound I-15, N-(3-{4-Chloro-2-[3-(5-methyl-pyrazin-2-yl)-ureido]-phenoxy}-propyl)-4-dimethylamino-benzaminde]"
≥ 50,≥ 50,"N#Cc1ccc(NC(=O)Nc2cc(Cl)ccc2OCCCNC(=O)N2CCOCC2)nc1 [Compound I-12, Morpholine-4-carboxylic acid (3-{4-chloro-2-[3-(5-cyano-pyridin-2-yl)-ureido]-phenoxy}-propyl)-amide]"
–,≥ 50,"Cc1cnc(NC(=O)Nc2cc(C(=O)N3CCN(C)CC3)ccc2OCCCNC(=O)c2ccc(Cl)cc2)cn1 [Compound I-20, 4-Chloro-N-(3-{4-(4-methyl-piperazine-1-carbonyl)-2-[3-(5-methyl-pyrazin-2-yl)-ureido]-phenoxy}-propyl)-benzamide]"
≥ 50,≥ 50,"Cc1cnc(NC(=O)Nc2cc(Cl)ccc2OCCCNC(=O)[C@@H](N)Cc2ccc(Cl)cc2)cn1 [Compound I-16, 2-Amino-N-(3-{4-chloro-2-[3-(5-methyl-pyrazin-2-yl)-ureido]-phenoxy}-propyl)-3-(4-chloro-phenyl)-propionamide]"
≥ 50,≥ 50,"Cc1cnc(NC(=O)Nc2cc(Cl)ccc2OCCCNC(=O)C(N)c2ccc(Cl)cc2)cn1 (centres unmarked) [Compound I-111, 2-Amino-N-(3-{4-chloro-2-[3-(5-methyl-pyrazin-2-yl)-ureido]-phenoxy}-propyl)-2-(4-chloro-phenyl)-acetamide]"
≥ 50,≥ 50,"Cc1cnc(NC(=O)Nc2ccc(N3CCN(C)CC3)cc2OCCCNC(=O)c2ccc(Cl)cc2)cn1 [Compound I-13, 4-Chloro-N-(3-{5-(4-methyl-piperazin-1-yl)-2-[3-(5-methyl-pyrazin-2-yl)-ureido]-phenoxy}-propyl)-benzamide]"
≥ 50,≥ 50,"CN1CCN(C(=O)NCCCOc2ccc(Cl)cc2NC(=O)Nc2ccc(C#N)cn2)CC1 [Compound I-18, 4-Methyl-piperazine-1-carboxylic acid (3-{4-chloro-2-[3-(5-cyano-pyridin-2-yl)-ureido]-phenoxy}-propyl)-amide]"
≥ 50,≥ 50,"CN(C)CC(=O)NCCCOc1ccc(Cl)cc1NC(=O)Nc1ccc(C#N)cn1 [Compound I-39, N-(3-{4-Chloro-2-[3-(5-cyano-pyridin-2-yl)-ureido]-phenoxy}-propyl)-2-dimethylamino-acetamide]"
